Reference: the supplement of paper PMC10307832

Tests used:
Test in all cases: relative viability (nuclei count vs DMSO), 5 days (fraction); higher = more cells survive
GSK-J4 + Lapatinib = compound: CCOC(=O)CCNc1cc(N2CCc3ccccc3CC2)nc(-c2ccccn2)n1 [GSK-J4] + CS(=O)(=O)CCNCc1ccc(-c2ccc3ncnc(Nc4ccc(OCc5cccc(F)c5)c(Cl)c4)c3c2)o1 [Lapatinib] (partner 2 µM)
Outline: (§1)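 The day after seeding in 1536-well plates, lung cancer cell lines were treated by pin tool with a single drug, or with a fixed anchor-drug dose together with five library-drug doses (not always all listed) in √10 steps. After 5 days, a combined fix-and-stain solution (final 0.05% Triton X-100, 1% formaldehyde, 1 ug/ml Hoechst) was added. Nuclei counted on 4× images gave relative viability as treated counts over vehicle counts, reported as the median of duplicate plates.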

GSK-J4 + Pictilisib = compound: CCOC(=O)CCNc1cc(N2CCc3ccccc3CC2)nc(-c2ccccn2)n1 [GSK-J4] + CS(=O)(=O)N1CCN(Cc2cc3nc(-c4cccc5[nH]ncc45)nc(N4CCOCC4)c3s2)CC1 [Pictilisib] (partner 1 µM)
Outline: as §1

AZ3146 + Lapatinib = compound: CN1CCC(CC1)OC2=CC(=C(C=C2)NC3=NC=C4C(=N3)N(C(=O)N4C)C5CCCC5)OC [AZ3146] + CS(=O)(=O)CCNCc1ccc(-c2ccc3ncnc(Nc4ccc(OCc5cccc(F)c5)c(Cl)c4)c3c2)o1 [Lapatinib] (partner 2 µM)
Outline: as §1

AZ3146 + Alpelisib = compound: CN1CCC(CC1)OC2=CC(=C(C=C2)NC3=NC=C4C(=N3)N(C(=O)N4C)C5CCCC5)OC [AZ3146] + Cc1nc(NC(=O)N2CCC[C@H]2C(N)=O)sc1-c1ccnc(C(C)(C)C(F)(F)F)c1 [Alpelisib] (partner 2 µM)
Outline: as §1

Row | Cell Line | relative viability (GSK-J4 + Lapatinib; first compound 0.5 µM) | relative viability (GSK-J4 + Lapatinib; first compound 1.581 µM) | relative viability (GSK-J4 + Lapatinib; first compound 5 µM) | relative viability (GSK-J4 + Lapatinib; first compound 15.81 µM) | relative viability (GSK-J4 + Lapatinib; first compound 50 µM) | relative viability (GSK-J4 + Pictilisib; first compound 0.5 µM) | relative viability (GSK-J4 + Pictilisib; first compound 1.581 µM) | relative viability (GSK-J4 + Pictilisib; first compound 5 µM) | relative viability (GSK-J4 + Pictilisib; first compound 15.81 µM) | relative viability (GSK-J4 + Pictilisib; first compound 50 µM) | relative viability (AZ3146 + Lapatinib; first compound 0.08 µM) | relative viability (AZ3146 + Lapatinib; first compound 0.253 µM) | relative viability (AZ3146 + Lapatinib; first compound 0.8 µM) | relative viability (AZ3146 + Lapatinib; first compound 2.53 µM) | relative viability (AZ3146 + Lapatinib; first compound 8 µM) | relative viability (AZ3146 + Alpelisib; first compound 0.08 µM) | relative viability (AZ3146 + Alpelisib; first compound 0.253 µM) | relative viability (AZ3146 + Alpelisib; first compound 0.8 µM) | relative viability (AZ3146 + Alpelisib; first compound 2.53 µM) | relative viability (AZ3146 + Alpelisib; first compound 8 µM)
1 | EBC-1 | 0.199 | 0.244 | 0.243 | 0.235 | 0.209 | 0.376 | 0.336 | 0.451 | 0.416 | 0.257 | 0.2 | 0.218 | 0.183 | 0.201 | 0.208 | 0.927 | 0.828 | 0.731 | 0.882 | 0.711
2 | COR-L23 | 0.881 | 0.917 |  | 0.927 | 0.615 | 0.731 | 0.532 |  | 0.606 | 0.566 | 1 | 1.02 | 0.871 | 0.923 | 0.899 | 0.705 | 0.74 | 0.766 | 0.824 | 0.639
3 | NCI-H2009 | 0.828 | 0.144 | 0.56 | 0.971 | 0.739 | 0.816 | 0.317 | 0.673 | 0.85 | 0.428 | 0.817 | 0.975 | 1.06 | 1.09 | 0.409 | 1.1 | 1.17 | 1.19 | 1.24 | 1.05
4 | NCI-H2023 | 0.827 | 0.0641 | 0.727 | 0.641 | 0.474 | 0.303 | 0.182 | 0.332 | 0.264 | 0.132 | 0.688 | 0.922 | 0.735 | 0.941 | 0.179 | 0.593 | 0.499 | 0.642 | 0.608 | 0.463
5 | NCI-H2405 | 1.15 | 1.03 |  | 1.09 | 1.17 | 0.465 | 0.713 |  | 0.708 | 0.475 | 1.11 |  | 0.967 | 1.31 | 1.29 | 0.891 |  | 0.789 | 0.829 | 0.76
6 | HCC-44 | 0.964 | 0.647 | 0.909 | 1.07 | 0.957 | 0.665 | 0.57 | 0.498 | 0.553 | 0.442 | 0.907 | 0.953 | 0.999 | 1.01 | 0.971 | 0.676 | 0.805 | 0.797 | 0.807 | 0.859
7 | EPLC-272H | 0.981 |  | 0.919 | 0.89 | 0.679 | 0.428 |  | 0.35 | 0.275 | 0.219 | 0.897 | 0.911 | 0.957 | 0.951 | 0.877 | 0.706 | 0.925 | 0.933 | 0.973 | 0.964
8 | NCI-H322M | 0.533 | 0.623 | 0.842 | 0.514 | 0.528 | 0.544 | 0.574 | 0.7 | 0.538 | 0.465 | 0.72 | 0.593 | 0.609 | 0.608 | 0.584 | 0.759 | 0.83 | 0.699 | 0.807 | 0.785
9 | SK-MES-1 | 0.452 | 0.495 | 0.459 | 0.392 | 0.421 | 0.37 | 0.265 | 0.394 | 0.348 | 0.34 | 0.496 | 0.43 | 0.424 | 0.523 | 0.432 | 0.785 | 0.93 | 0.866 | 0.836 | 0.932
10 | NCI-H2170 | 0.311 | 0.247 | 0.265 | 0.261 | 0.22 | 0.325 | 0.381 | 0.27 | 0.357 | 0.221 | 0.265 | 0.283 | 0.252 | 0.273 | 0.277 | 0.72 | 0.767 | 0.82 | 0.794 | 0.733
11 | H3255 | 0.238 | 0.255 | 0.271 | 0.206 | 0.493 | 0.415 | 0.414 | 0.498 | 0.412 | 0.424 | 0.23 | 0.216 | 0.186 | 0.267 | 0.245 | 0.749 | 0.649 | 0.664 | 0.754 | 0.656
12 | EKVX | 0.216 | 0.205 | 0.261 | 0.197 | 0.171 | 0.343 | 0.536 | 0.619 | 0.424 | 0.397 | 0.172 | 0.222 | 0.225 | 0.24 | 0.2 | 0.865 | 0.802 | 0.716 | 0.981 | 1
13 | NCI-H1993 | 0.837 | 0.878 | 0.927 | 0.808 | 0.671 | 0.834 | 0.845 | 0.807 | 0.684 | 0.725 | 0.896 | 0.788 | 0.724 | 0.853 | 0.779 | 0.785 | 0.713 | 0.61 | 0.666 | 0.662
14 | NCI-H650 | 0.841 | 0.579 | 0.614 | 0.783 | 0.614 | 0.839 | 0.798 | 0.789 | 0.779 | 0.468 | 0.804 | 0.844 | 0.667 | 1.02 | 0.973 | 0.813 | 1.08 | 0.915 | 1.14 | 1.25
15 | NCI-H460 | 1.05 | 0.924 | 0.809 | 0.955 | 0.364 | 0.43 | 0.457 | 0.519 | 0.343 | 0.217 | 0.877 | 1.11 | 0.937 | 0.817 | 0.656 | 0.375 | 0.466 | 0.478 | 0.573 | 0.254
16 | NCI-H1437 | 0.851 | 0.693 | 0.713 | 0.727 | 0.17 | 0.454 | 0.352 | 0.385 | 0.435 | 0.165 | 0.708 | 0.739 | 0.829 | 0.899 | 0.519 | 0.954 | 1.05 | 0.876 | 0.96 | 0.911
17 | NCI-H2347 | 0.841 | 0.573 | 0.753 | 0.963 | 0.664 | 0.623 | 0.596 | 0.855 | 0.731 | 0.494 | 0.853 | 0.832 | 0.939 | 1.04 | 1.03 | 0.944 | 1.01 | 0.708 | 1.1 | 1.04
18 | NCI-H661 | 0.483 | 0.472 | 0.405 | 0.349 | 0.386 | 0.484 | 0.463 | 0.331 | 0.339 | 0.342 | 0.661 | 0.514 | 0.559 | 0.537 | 0.472 | 0.729 | 0.549 | 0.565 | 0.689 | 1.03
19 | NCI-H1944 | 0.8 | 0.795 | 0.78 | 0.665 | 0.787 | 0.374 | 0.346 | 0.353 | 0.336 | 0.288 |  | 0.801 | 0.819 | 0.837 | 0.987 |  | 0.845 | 0.991 | 0.825 | 0.861
20 | NCI-H358 | 0.452 | 0.414 | 0.434 | 0.456 | 0.367 | 0.459 | 0.304 | 0.377 | 0.407 | 0.268 | 0.595 | 0.471 | 0.377 | 0.384 | 0.435 | 0.897 | 0.741 | 0.783 | 0.889 | 0.78
21 | NCI-H2126 | 0.817 | 0.657 | 0.854 | 0.69 | 0.59 | 0.517 | 0.446 | 0.633 | 0.519 | 0.41 | 0.691 | 0.745 | 0.707 | 0.818 | 0.729 | 0.683 | 0.705 | 0.757 | 0.724 | 0.731
22 | HCC-78 | 0.707 | 0.684 | 0.846 |  | 0.738 | 0.202 | 0.185 | 0.889 |  | 0.225 |  | 0.488 | 0.762 | 0.864 | 0.574 |  | 0.268 | 0.224 | 0.367 | 0.321
23 | PC-14 | 0.351 | 0.228 | 0.344 | 0.249 | 0.323 | 0.642 | 0.672 | 0.678 | 0.714 | 0.615 | 0.285 | 0.351 | 0.279 | 0.382 | 0.315 | 0.897 | 0.976 | 0.979 | 1.07 | 0.916
24 | NCI-H520 | 0.846 | 0.515 | 0.939 | 0.74 | 0.658 | 0.269 | 0.236 | 0.303 | 0.275 | 0.414 | 0.797 | 0.84 | 0.838 | 0.965 | 0.576 | 0.689 | 0.943 | 0.791 | 0.834 | 1.04
25 | LXF-289 | 0.899 | 0.821 | 0.907 | 0.934 | 0.866 | 0.761 | 0.655 | 0.691 | 0.754 | 0.562 | 0.846 | 0.924 | 0.889 | 0.907 | 0.908 | 1.02 | 1 | 0.96 | 1.06 | 0.946
26 | NCI-H596 | 1.01 | 1.02 | 1 | 0.866 | 0.916 | 0.417 | 0.428 | 0.365 | 0.431 | 0.369 | 1.05 | 0.94 | 1.21 | 1.08 | 0.979 | 0.482 | 0.484 | 0.489 | 0.487 | 0.428
27 | NCI-H727 | 0.827 |  | 0.996 | 0.795 | 0.5 | 0.379 |  | 0.691 | 0.427 | 0.18 | 0.745 | 0.557 | 0.79 | 1.29 | 0.869 | 0.506 | 0.457 | 0.48 | 0.612 | 0.333
